In patent US10570099B2, “Salts of an epidermal growth factor receptor kinase inhibitor” (Celgene CAR LLC, priority 2012, dated 2020):

How the values were obtained:
mutant EGFR kinase = details: enzymatic and cellular assays; cited from earlier work
[1] = test system: human non-small cell lung cancer cell; details: cited from earlier work
[2] = test system: human non-small cell lung cancer cell; details: cited from earlier work; remark: listed apart in the source
[3] = Slurry in pH 6.2 aqueous medium (conversion to unknown solid form); assay type: physicochemical; details: slurry as for the hydrobromide at pH 6.2, XRPD
Method: In attempts to characterize this form, as well as establish the rate of conversion to this form while slurrying the material, the following experiments were carried out. Initially, approximately 100 mg of the hydrobromide (1 equiv.) material was slurried in a pH 6.2 aqueous solution at ambient and XRPD analysis was carried out at time points 5 min., 1 hr, 2 hrs, 4 hrs and 8 hrs. Further analysis was then also carried out on the converted material.

[4] = Thermodynamic solubility in media of various pH (HPLC; XRPD of excess solids); details: for Thermodynamic Solubility: ca. 24 hours
Method: The remaining solids were also analysed by XRPD analysis to establish if any changes in the solid form occurred.
The remaining solids were also analysed by XRPD analysis to establish if any changes in the solid form occurred. For the buffer solutions, KCl/HCl was used for pH 1 and citrate/phosphate combinations for pH 3, 4.5 and 6.6.
The remaining solids were also analysed by XRPD analysis to establish if any changes in the solid form occurred. For the buffer solutions, KCl/HCl was used for pH 1 and citric acid/sodium citrate combinations for pH 3, 4.5 and 6.2.
The solids were then removed by filtration and tested by XRPD analysis. The mother liquors were analyzed by HPLC to determine API solubility.
For the buffer solutions, KCl/HCl was used for pH 1 and citrate/phosphate combinations for pH 3, 4.5 and 6.6 (10 mM). The pH of the solutions was also measured prior to HPLC analysis.

[5] = Dynamic vapour sorption (DVS); assay type: physicochemical
Method: For dynamic vapour sorption (DVS), approximately 10-20 mg of sample was placed into a wire mesh vapour sorption balance pan and loaded into a DVS-1 dynamic vapour sorption balance by Surface Measurement Systems. The sample was subjected to a ramping profile from 20-90% relative humidity (RH) at 10% increments, maintaining the sample at each step until a stable weight had been achieved (99.5% step completion). After completion of the sorption cycle, the sample was dried using the same procedure, but all the way down to 0% RH and finally taken back to the starting point of 20% RH. The weight change during the sorption/desorption cycles were plotted, allowing for the hygroscopic nature of the sample to be determined.

[6] = Intrinsic dissolution of compressed discs; assay type: physicochemical
Method: A Sotax AT7 dissolution bath (USP 2, EP 2 apparatus) was used for the dissolution study in which paddles were used to stir the media. All tests were carried out at 37° C. and a paddle speed of 100 rpm.
(§1) Approximately 100-120 mg of each form was compressed into discs by placing the material into a die (diameter: 13 mm) and compressing the die under 5 tons of pressure in a hydraulic press for ca. 2 minutes. A Sotax AT7 (conformed to EP2 and USP2) dissolution instrument was used containing paddles to stir the media at 100 rpm. Dissolution media of pH 3 (1% SDS) and pH 4.5 (1% SDS) were prepared using citrate/phosphate buffer. All materials were tested in 750 ml of the buffer medium. Discs were added at time=0 seconds and allowed to sink to the bottom of the dissolution vessel before stirring began. ca. 1 ml aliquots of media were extracted from the dissolution vessels at times 1, 5, 10, 15, 30, 60, 120, 240 minutes and 24 hours, and tested for dissolved salt concentration by HPLC-UV. The dissolution tests were carried out in duplicate. For both dissolution media, the peak areas for the initial time points (up to 15 minutes), fell below the limit of quantification, however, when plotting Dissolution rate vs. time, the steepest part of the curve occurs during these early time points.
as §1, with “material” for “each form”, “API” for “dissolved salt”

[7] = Hydration study (slurry in solvent:water mixtures, XRPD); assay type: physicochemical; details: ambient, ca. 3-4 days
Method: The resulting solids were then analyzed by XRPD to determine if any changes had occurred on slurrying.
Slurries of the hydrobromide salt were created in acetone:water mixtures (3%, 5% and 10%) and stirred at ambient for ca. 3 days. The resulting solids were then analysed by XRPD to determine if any changes had occurred on slurrying.
Slurries were created using ca. 200 mg of Form I salt material in 2 mL of the appropriate solvent system. These were stirred at ca. 55° C. for 6 hours.
Slurries were created using ca. 200 mg of Form I salt material in 2 mL of the appropriate solvent system.

[8] = 1 week stability of primary screen salts at 40° C./75% RH and 80° C. (open vials, XRPD); assay type: physicochemical; details: listed as Besylate (2 equiv.) Form I
Method: (open vials). TGA was carried out after the stability studies for samples containing sufficient material.

[9] = 1 week stability study (XRPD and HPLC); assay type: physicochemical; details: 1 week
Method: (§2) Resulting solids were analysed by XRPD and HPLC to establish if any changes had occurred.
as §2
The resulting solids were analysed by XRPD and HPLC to establish if any changes had occurred.

[10] = Salt disproportionation study (slurry in deionized water); assay type: physicochemical; details: for pH of the supernatant: deionized water slurry; for Disproportionation study, result of slurrying (XRPD): deionized water, ambient
Method: The pH of the supernatant was also monitored.
The hydrobromide salt was slurried in deionised water at ambient temperature (ca. 22° C.). […] The pH of the supernatant was also monitored.

[11] = 40° C./75% RH, closed (crimped) vial

C=CC(=O)Nc1cccc(Nc2nc(Nc3ccc(N4CCN(C(C)=O)CC4)cc3OC)ncc2C(F)(F)F)c1 [Compound 1, N-(3-(2-(4-(4-acetylpiperazin-1-yl)-2-methoxyphenylamino)-5-(trifluoromethyl)pyrimidin-4-ylamino)phenyl)acrylamide]
inhibition of mutant EGFR kinase (mutant EGFR kinase): selective covalent, irreversible inhibition | inhibition of cell proliferation in vivo [1]: inhibit | inhibition of cell proliferation in vitro [2]: inhibit | solid form after slurry experiment [3]: remained as the free base Form I

C=CC(=O)Nc1cccc(Nc2nc(Nc3ccc(N4CCN(C(C)=O)CC4)cc3OC)ncc2C(F)(F)F)c1.O=S(=O)(O)c1ccccc1.O=S(=O)(O)c1ccccc1 [bis-besylate salt]
XRPD of excess solids ([4]; pH 1.0, KCl/HCl): Diffractogram corresponds with the hydrated | Thermodynamic Solubility ([4]; pH 1.0, KCl/HCl buffer): 4930 µg/mL | XRPD of excess solids ([4]; pH 3.0, Citrate/Phosphate): Change in diffractogram - does not correspond | Thermodynamic Solubility ([4]; pH 3.0, Citrate/Phosphate): 240 µg/mL | XRPD of excess solids ([4]; pH 3.0, KHP/HCl): Change in diffractogram - does not correspond | Thermodynamic Solubility ([4]; pH 3.0, KHP/HCl): 260 µg/mL | XRPD of excess solids ([4]; pH 4.5, Citrate/Phosphate): Change in diffractogram - does not correspond | Thermodynamic Solubility ([4]; pH 4.5, Citrate/Phosphate): 430 µg/mL | XRPD of excess solids ([4]; pH 4.5, KHP/NaOH): Change in diffractogram - does not correspond | Thermodynamic Solubility ([4]; pH 4.5, KHP/NaOH): 100 µg/mL | XRPD of excess solids ([4]; pH 6.6, Citrate/Phosphate): Change in diffractogram - does not correspond | Thermodynamic Solubility ([4]; pH 6.6, Citrate/Phosphate): 660 µg/mL | XRPD of excess solids ([4]; pH 6.6, Phosphate/NaOH): Change in diffractogram - does not correspond | Thermodynamic Solubility ([4]; pH 6.6, Phosphate/NaOH): 170 µg/mL | post DVS XRPD analysis (polymorphic form) ([5]; after DVS cycles): change in polymorphic form | water uptake (DVS) ([5]; between 20 and 70% RH): ca. 2.2% | intrinsic dissolution value ([6]; pH 3.0 (1% SDS), early time points, tablet 1): approximately 0.36 mg/cm^2/min | intrinsic dissolution value ([6]; pH 3.0 (1% SDS), early time points, tablet 2): ~0.38 mg/cm^2/min | intrinsic dissolution value ([6]; pH 3.0 (1% SDS), later time points, tablet 1): 0.08 mg/cm^2/min | intrinsic dissolution value ([6]; pH 3.0 (1% SDS), later time points, tablet 2): 0.07 mg/cm^2/min | intrinsic dissolution value ([6]; pH 4.5 (1% SDS), early time points, tablet 1): approximately 0.61 mg/cm^2/min | intrinsic dissolution value ([6]; pH 4.5 (1% SDS), early time points, tablet 2): approximately 0.61 mg/cm^2/min | intrinsic dissolution value ([6]; pH 4.5 (1% SDS), later time points, tablet 1): 0.09 mg/cm^2/min | intrinsic dissolution value ([6]; pH 4.5 (1% SDS), later time points, tablet 2): 0.08 mg/cm^2/min | Hydration study, result of slurrying ([7]; Acetone:water (3%)): Corresponds with the input bis- | Hydration study, result of slurrying ([7]; Acetone:water (10%)): Different from the bis-besylate input | Stability 40° C./75% RH (open conditions) [8]: Solid/gum present. | HPLC purity after storage [9, 11]: 97.35% | XRPD after storage [9, 11]: No change in polymorphic form. | HPLC purity after storage ([9]; 40° C./75% RH, open vial): 97.22% | XRPD after storage ([9]; 40° C./75% RH, open vial): Change in polymorphic form, | HPLC purity after storage ([9]; 80° C., open vial): 97.20% | XRPD after storage ([9]; 80° C., open vial): Corresponds predominantly with input | pH of the supernatant ([10]; 1 hr): pH 2-3 | pH of the supernatant ([10]; 24 hrs): pH 1-2 | pH of the supernatant ([10]; 48 hrs): pH 1-2 | Disproportionation study, result of slurrying (XRPD) ([10]; 1 hr): Yellow gum present. | Disproportionation study, result of slurrying (XRPD) ([10]; 24 hrs): Different from starting material, appears to | Disproportionation study, result of slurrying (XRPD) ([10]; 48 hrs): Different from starting material, appears to
